Results from US4115065A, “Saturation analysis of folate compound with selenium-75 labeled folate” (The Radiochemical Centre Limited, priority 1973, dated 1978).
Several values for one entry are separate records, joined by “and”; a condition that tells them apart may be missing. Identical values can stand only once.

Legend:
[1] = tested on: porcine serum as binding protein; assay: Example 7: saturation assay, Se75 pteroyl-L-selenomethionine label, N5-methyltetrahydrofolate standards, porcine serum binder; details: 0.5 ng label, porcine serum 30 μl
Experimental: (§1) Standard solutions of N^5 -methyltetrahydrofoate containing 0, 0.25, 0.5, 1, 2 and 4 ng in phosphate-albumin buffer (200 μl) were pipetted in assay tubes. Buffer was also added to `total` and `blank` tubes (400 and 300 μl respectively). To each tube was added pteroyl-L-methylselenocysteine-Se75 (0.5 ng, sp. act. ca 0.24 Ci/m.mole) in 100 μl of buffer. Immediately afterwards β-lactoglobulin (100 μg) in 100 μl of buffer was added to all tubes except the blanks. After 60 minutes incubation at room temperature, a suspension of albumin-coated charcoal in buffer (200 μl) was added at 4° C. to all tubes except the totals. The tubes were centrifuged (2000g for 10 minutes) and the supernate was counted for 300 seconds in an NE8312 beta-gamma counter.
(§2) Results are expressed in terms of [formula]
(§3) The protocol of example 4 was used except that Se75-pteroyl-L-selenomethionine (0.5ng, sp. act. ca 2.25 Ci/m.mole) was substituted as label for Se75-pteroyl-L-methylselenocysteine.
The protocol of example 6 was used except that a solution of porcine serum (30 μl) in buffer (70 μl) was substituted for β-lactoglobulin as binding protein.

[2] = tested on: porcine serum as binding protein; assay: Example 11: saturation assay, Se75 pteroyl-L-selenomethionine label, folic acid standards, porcine serum binder; details: 0.5 ng label, porcine serum 30 μl
Experimental: as §1, §2, §3
The protocol of example 6 was used except that folic acid was substituted for N^5 -methyltetrahydrofolate as standard.
The protocol of example 10 was used except that a solution containing 30 μl of porcine serum and 70 μl of buffer was substituted for β-lactoglobulin as binding protein.

[3] = tested on: rabbit anti folic acid antiserum; assay: Example 13: radioimmunoassay for folic acid, Se75 pteroyl-L-selenomethionine label; format: binding; details: 0.5 ng label
Experimental: (§4) Standard solutions of folic acid containing 0, 0.25, 0.5, 1, 2 and 4 ng in phosphate-albumin buffer (200 μl) were pipetted into assay tubes. Buffer was also added to `total` and `blank` tubes (400 and 300 μl respectively). To each tube was added Se75-pteroyl-L-methylselenocysteine (0.5 ng, sp. act. ca 0.24 Ci/m.mole) in 100 μl of buffer. Immediately afterwards was added, to all tubes except the blanks, 100 μl of buffer containing 2 μl of a 1/15000 titre rabbit anti folic acid antiserum, raised against a conjugate of folic acid with serum albumin.
(§5) After 60 minutes incubation at room temperature, a suspension of albumin-coated charcoal in buffer (200 μl) was added at 4° C. to all tubes except the totals. The tubes were centrifuged (2000g for 10 minutes) and the supernate was counted for 300 seconds.
The protocol of example 12 was used except that Se75-pteroyl-L-selenomethionine (0.5ng, sp. act. ca 2.25 Ci/m.mole) was substituted for Se-75-pteroyl-L-methylselenocysteine as label

β-lactoglobulin [4] = target: T1, β-lactoglobulin (Bos taurus, UniProt P02702); assay: Example 6: saturation assay, Se75 pteroyl-L-selenomethionine label, N5-methyltetrahydrofolate standards; format: binding; details: 0.5 ng label
Experimental: as §1, §2, §3
Target sequence in this assay (P02702 20-234 limits assumed): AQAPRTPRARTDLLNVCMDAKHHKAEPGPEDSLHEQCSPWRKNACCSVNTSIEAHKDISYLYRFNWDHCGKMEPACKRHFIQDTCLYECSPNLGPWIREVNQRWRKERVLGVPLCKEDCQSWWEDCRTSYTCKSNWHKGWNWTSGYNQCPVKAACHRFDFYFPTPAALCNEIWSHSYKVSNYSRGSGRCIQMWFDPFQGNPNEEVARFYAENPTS

β-lactoglobulin [5] = target: T1, β-lactoglobulin; assay: Example 5: saturation assay, Se75 pteroyl-L-methylselenocysteine label, folic acid standards; format: binding; details: 0.5 ng label, β-lactoglobulin 100 μg
Experimental: as §1, §2
Target sequence in this assay (P02702 20-241): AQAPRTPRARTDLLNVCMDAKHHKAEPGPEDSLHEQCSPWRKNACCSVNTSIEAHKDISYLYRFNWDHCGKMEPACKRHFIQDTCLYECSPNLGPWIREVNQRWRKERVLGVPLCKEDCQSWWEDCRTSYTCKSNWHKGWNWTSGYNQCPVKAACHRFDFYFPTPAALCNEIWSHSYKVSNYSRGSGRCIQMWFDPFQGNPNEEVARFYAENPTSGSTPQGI
The protocol of example 4 was used except that folic acid was used as the standard instead of N^5 -methyltetrhydrofolate

[6] = tested on: rabbit anti folic acid antiserum; assay: Example 12: radioimmunoassay for folic acid, Se75 pteroyl-L-methylselenocysteine label; format: binding; details: 0.5 ng label, 2 μl rabbit anti folic acid antiserum
Experimental: as §4, §5

[7] = tested on: porcine serum as binding protein; assay: Example 9: saturation assay, Se75 pteroyl-L-methylselenocysteine label, folic acid standards, porcine serum binder; details: 0.5 ng label, porcine serum 30 μl
Experimental: as §1, §2
(§6) The protocol of example 4 was used except that a solution (100 μl) containing 30 μl of porcine serum and 70 μl of buffer was used instead of β-lactoglobulin as binding protein.
The protocol of example 8 was used except that folic acid was substituted for N^5 -methyltetrahydrofolate as standard

[8] = tested on: porcine serum as binding protein; assay: Example 8: saturation assay, Se75 pteroyl-L-methylselenocysteine label, N5-methyltetrahydrofolate standards, porcine serum binder; details: 0.5 ng label, porcine serum 30 μl
Experimental: as §1, §2, §6

β-lactoglobulin [9] = target: T1, β-lactoglobulin; assay: Example 4: saturation assay for folates, Se75 pteroyl-L-methylselenocysteine label, N5-methyltetrahydrofolate standards; format: binding; details: 0.5 ng label, β-lactoglobulin 100 μg
Experimental: as §1, §2
Target sequence in this assay (P02702 20-234 limits assumed): as the sequence (P02702 20-234 limits assumed) above

[10] = 0.25 ng N5 methyltetrahydrofolate
[11] = 0.5 ng N5 methyltetrahydrofolate

C[75Se]CC[C@H](NC(=O)c1ccc(NCc2cnc3nc(N)[nH]c(=O)c3n2)cc1)C(=O)O [Se75-pteroyl-L-selenomethionine, N-Pteroyl-L-selenomethionine-Se75]
Percent of labelled folate bound ([1]; 0 mg N5 methyltetrahydrofolate): 36.4% | Percent of labelled folate bound ([1]; 4 ng N5 methyltetrahydrofolate): 15.5% and 15.6% | Percent of labelled folate bound ([1]; 0.25 mg N5 methyltetrahydrofolate): 21.3% | Percent of labelled folate bound ([1]; 0.5 mg N5 methyltetrahydrofolate): 17.2% and 17.1% | Percent of labelled folate bound ([1]; 1 mg N5 methyltetrahydrofolate): 20.7% and 18.5% | Percent of labelled folate bound ([1]; 2 mg N5 methyltetrahydrofolate): 19.3% and 17.2% | Percent of labelled folate bound ([2]; 0 ng folic acid): 35.7% | Percent of labelled folate bound ([2]; 0.25 ng folic acid): 20.3% and 21.1% | Percent of labelled folate bound ([2]; 0.5 ng folic acid): 18.4% and 20.9% | Percent of labelled folate bound ([2]; 1 ng folic acid): 16.8% and 17.3% | Percent of labelled folate bound ([2]; 2 ng folic acid): 13.0% and 13.9% | Percent of labelled folate bound ([2]; 4 ng folic acid): 12.6% and 15.2% | Percent of labelled folate bound ([3]; 0 ng folic acid): 42.2% | Percent of labelled folate bound ([3]; 0.25 ng folic acid): 25.7% and 27.6% | Percent of labelled folate bound ([3]; 0.5 ng folic acid): 22.1% and 19% | Percent of labelled folate bound ([3]; 1 ng folic acid): 20.8% and 21.9% | Percent of labelled folate bound ([3]; 2 ng folic acid): 16.7% and 15.5% | Percent of labelled folate bound ([3]; 4 ng folic acid): 16% and 13.7% | Percent of labelled folate bound (β-lactoglobulin [4]; 0 ng N5 methyltetrahydrofolate): 49.9% | Percent of labelled folate bound (β-lactoglobulin [4]; [10]): 39.3% and 36.1% | Percent of labelled folate bound (β-lactoglobulin [4]; [11]): 35.9% and 37.3% | Percent of labelled folate bound (β-lactoglobulin [4]; 1 ng N5 methyltetrahydrofolate): 32.6% and 33.0% | Percent of labelled folate bound (β-lactoglobulin [4]; 2 ng N5 methyltetrahydrofolate): 25.9% | Percent of labelled folate bound (β-lactoglobulin [4]; 4 ng N5 methyltetrahydrofolate): 25.4% and 24.1%

C[75Se]C[C@H](NC(=O)c1ccc(NCc2cnc3nc(N)[nH]c(=O)c3n2)cc1)C(=O)O [pteroyl-L-methylselenocysteine-Se75, N-Pteroyl-Se-methyl-L-selenocysteine-Se75]
percentage of labelled folate bound (β-lactoglobulin [5]; 0 ng folic acid): 95.5% | percentage of labelled folate bound (β-lactoglobulin [5]; 0.25 ng folic acid): 86.1% and 85.6% | percentage of labelled folate bound (β-lactoglobulin [5]; 0.5 ng folic acid): 67.7% and 82.5% | percentage of labelled folate bound (β-lactoglobulin [5]; 1 ng folic acid): 45.5% and 41.4% | percentage of labelled folate bound (β-lactoglobulin [5]; 2 ng folic acid): 28.1% and 32.6% | percentage of labelled folate bound (β-lactoglobulin [5]; 4 ng folic acid): 10.4% | Percent of labelled folate bound to antiserum ([6]; 0 ng folic acid): 97.6% | Percent of labelled folate bound to antiserum ([6]; 0.25 ng folic acid, listed as Se75-pteroyl-L-methylselenocysteine): 72.4% and 90.9% | Percent of labelled folate bound to antiserum ([6]; 0.5 ng folic acid, listed as Se75-pteroyl-L-methylselenocysteine): 52.5% and 70.3% | Percent of labelled folate bound to antiserum ([6]; 1 ng folic acid, listed as Se75-pteroyl-L-methylselenocysteine): 50.1% and 35.3% | Percent of labelled folate bound to antiserum ([6]; 2 ng folic acid, listed as Se75-pteroyl-L-methylselenocysteine): 20.1% and 29.6% | Percent of labelled folate bound to antiserum ([6]; 4 ng folic acid, listed as Se75-pteroyl-L-methylselenocysteine): 20.1% and 12.8% | Percent of labelled folic acid bound to porcine serum ([7]; 0 ng folic acid): 92.7% | Percent of labelled folic acid bound to porcine serum ([7]; 0.25 ng folic acid): 67.1% and 68.7% | Percent of labelled folic acid bound to porcine serum ([7]; 0.5 ng folic acid): 60.9% and 43% | Percent of labelled folic acid bound to porcine serum ([7]; 1 ng folic acid): 26.2% and 31.3% | Percent of labelled folic acid bound to porcine serum ([7]; 2 ng folic acid): 28.0% and 28.3% | Percent of labelled folic acid bound to porcine serum ([7]; 4 ng folic acid): 9% and 2.6% | Percent of labelled folate bound ([8]; 0 ng N5 methyltetrahydrofolate): 89.3% | Percent of labelled folate bound [8, 10]: 61.4% and 52.0% | Percent of labelled folate bound [8, 11]: 43.3% and 48.1% | Percent of labelled folate bound ([8]; 1 ng N5 methyltetrahydrofolate): 41.2% and 38.9% | Percent of labelled folate bound ([8]; 2 ng N5 methyltetrahydrofolate): 40.9% and 39.3% | Percent of labelled folate bound ([8]; 4 ng N5 methyltetrahydrofolate): 34.5% and 31.0% | percentage of labelled folate bound (β-lactoglobulin [9]; 0 ng N5 methyltetrahydrofolate, 60 minutes room temperature): 94% | percentage of labelled folate bound (β-lactoglobulin [9]; [10]): 81.8% and 78.0% | percentage of labelled folate bound (β-lactoglobulin [9]; [11]): 81.4% | percentage of labelled folate bound (β-lactoglobulin [9]; 1 ng N5 methyltetrahydrofolate): 78.3% and 78.6% | percentage of labelled folate bound (β-lactoglobulin [9]; 2 ng N5 methyltetrahydrofolate): 51.3% and 58.0% | percentage of labelled folate bound (β-lactoglobulin [9]; 4 ng N5 methyltetrahydrofolate): 44.4% and 34.1%
